Key:
[1] = test system: Orf W1 mutant; assay: Phenotypes of the mutants: lysis by penicillin, vancomycin, DOC; assay type: cell-based, S. pneumoniae
Method: (§1) Construction of mutations: Insertion duplication mutagenesis was carried out using PCR to generate gene fragments for homologous recombination proximal to the amino terminus of OrfW1, HK or RR as follows:
(§2) Phenotypes of the mutants: The mutants were assessed for various physiological functions characteristic of pneumococci. This included lysis by penicillin, vancomycin, and the detergent deoxycholate (DOC). Other capabilities tested included ability to undergo natural DNA transformation (Transform) and expression of the LytA protein as assessed by Western blot.

[2] = test system: HK mutant; assay: as above; assay type: cell-based, S. pneumoniae
Method: as §1, §2

[3] = test system: RR mutant; assay: as above; assay type: cell-based, S. pneumoniae
Method: as §1, §2

[4] = test system: loss of function mutants of the ABC transporter and RR/HK; assay: Tolerance of loss of function mutants; assay type: cell-based, S. pneumoniae; conditions: growth inhibitory concentrations
Description: As described in Example 6, using insertion duplication mutagenesis, loss of function mutations were obtained in each of the 3 open reading frames of the ABC transporter and each of the two parts of the RR/HK. […] These parallel phenotypes further implicate these topographically close genes in a common pathway.
Vancomycin is the only antibiotic that maintains efficacy against many strains of highly antibiotic resistant bacteria, such as staphylococci, enterococci and pneumococci. Escape from antibiotic activity of vancomycin has been detected in rare staphylococci and enterococci but not in pneumococci as yet. […] Infect. Dis. J., 12:196-200 (1993); Marton et al., J. Infect. Dis., 163:542-8 (1991); and Bradley et al., Pediatr. Infect. Dis., 14:1037-1041 (1995)]. […] If they created a phenotype which was corrected by exogenous peptide, they may participate in the biological activity of the peptide. For instance, the ABC transporter may transport the peptide and the HK may serve as an extracellular receptor for the peptide which then changes the behavior of the bacteria (i.e., killing) via a RR signal.

[5] = test system: parent strain R6; assay: Effect of vancomycin treatment on viability; assay type: cell-based, S. pneumoniae; conditions: R6, vancomycin 10×MIC (5 μg/ml), over 4 hours
Method: Bacterial viability was followed for six hours.
(§3) The effect of penicillin and vancomycin treatment on the viability was determined by exposing 10 ml cultures in the early exponential phase of growth (OD620nm=0.3, corresponding 5×10^7 cfu/ml) to ten times the MIC of benzylpenicillin or vancomycin, respectively. After various times of exposure, 100 μl portions were removed, serially diluted in C+Y and in the case of penicillin supplemented with 100 units of penicillinase (Sigma), and plated on tryptic-soy agar supplemented with 3% sheep blood (v/v).

[6] = test system: clinical isolate F79; assay: Lysis of tolerant clinical isolate; assay type: cell-based, pneumococcus; conditions: 10×MIC of penicillin and/or 0.5 mM peptide
Method: FIGS. 11A-11B show the effects of 10×MIC of penicillin and/or 0.5 mM of the peptide having the amino acid sequence of SEQ ID NO:2 on the lysis of clinical isolate F79 cells (FIG. 11A) and HK mutant VanS cells (FIG. 11B).
F79 is a natural isolate of pneumococcus with mutations in the HK and the ABC transporter genes as determined by SSCP (see Example 11).

[7] = test system: strain RNET01 (vncS over-expressed); assay: Effect of vancomycin treatment on viability; assay type: cell-based, S. pneumoniae; conditions: RNET01, vancomycin 10×MIC (5 μg/ml), over 4 hours
Method: as §3
To address the question if the kinase/phosphatase VncS was indeed directly linked to the major pneumococcal autolytic pathway, VncS was overexpressed from a plasmid in a vncS deficient knockout mutant. […] To establish a possible correlation between over-expression of the vncS gene and cell death RNET01 and R6 were exposed to vancomycin.

[8] = test system: clinical isolate A144; assay: Cell viability (CFU/ml) one hour after addition; assay type: cell-based, pneumococcus; conditions: 10×MIC of penicillin, 1×MIC of vancomycin or 0.4 mM peptide
Description: Tolerance to penicillin occurs in bacteria that fail to trigger autolysins in response to the drug. […] This is a mechanism of resistance to these drugs and is a serious emerging medical problem. […] However, one pneumococcal strain that fails to lyse and dies slowly in response to both penicillin and vancomycin is the clinical isolate A144. This combination of traits makes A144 recalcitrant to therapy. FIG. 8 compares the activity of penicillin, vancomycin, and the peptide having the amino acid sequence of SEQ ID NO:2 against a classical sensitive strain, R6, and the tolerant strain A144. […] In contrast, strain A144 loses only 0.5 logs of viability in the same time period for all three therapies. […] Thereafter the bacteria grew more slowly than untreated controls.

[9] = test system: mutant SPSJ01; assay: Screen of library of loss of function mutants for antibiotic tolerance; assay type: cell-based, pneumococcus
Description: To detect genes that are part of the trigger pathway of the pneumococcal autolysin a library of loss of function mutants has been created, which was screened for antibiotic tolerance [Pearce et al., Mol. Microbiol., 9:1037-1050 (1993)]. […] It is reasonable to assume that this two component system represents the start of the pneumococcal autolytic trigger pathway, functioning as a relay station reacting to cell density signals or the binding of antibiotics to penicillin binding proteins. Similar to the enterococcal histidine kinase VanSB, the pneumococcal VncS works most likely as a kinase/phosphatase (see Example 1, above).

[10] = test system: vexp3 mutant; assay: Effect of antibiotic treatment on viability; assay type: cell-based, S. pneumoniae; conditions: 10×MIC of vancomycin, in 4 hours
Method: Bacterial viability was followed for six hours. (Parent strain, R6 (□), vex3 mutant (◯), and vncS mutant (⋄)).
as §3

[11] = test system: leucine deprived R6 cells; assay: Stringent response: lysis after leucine deprivation; assay type: cell-based, S. pneumoniae; conditions: 10×MIC of penicillin or vancomycin, 0.2 mM P27, or combination
Method: P27 and the stringent response mechanism: The stringent response is believed to prevent the death pathway. To clarify the relationship of the stringent response to P27 activity, protein synthesis of R6 was inhibited by leucine deprivation and the effect of P27 was monitored (FIG. 19). […] The minimum concentration of penicillin required to cause penicillin dependent autolysis was equal to its MIC ([…]).

CN[C@H](CC(C)C)C(=O)N[C@H]1C(=O)N[C@@H](CC(N)=O)C(=O)N[C@H]2C(=O)N[C@H]3C(=O)N[C@H](C(=O)N[C@H](C(=O)O)c4cc(O)cc(O)c4-c4cc3ccc4O)[C@H](O)c3ccc(c(Cl)c3)Oc3cc2cc(c3O[C@@H]2O[C@H](CO)[C@@H](O)[C@H](O)[C@H]2O[C@H]2C[C@](C)(N)[C@H](O)[C@H](C)O2)Oc2ccc(cc2Cl)[C@H]1O [vancomycin]
Lysis by [1]: tolerant
Lysis by [2]: tolerant
Lysis by [3]: sensitive
tolerance (lysis and death) [4]: exhibited tolerance
loss in viability (kill) [5]: 4 log
lysis of F79 [6]: tolerant
loss in viability [7]: 1 log
loss of viability [8]: 0.5 logs
death in the presence of antibiotic [9]: failed to die
kill [10]: less than 2 log
lysis of R6 under leucine deprivation [11]: neither the addition of 10×the MIC of penicillin or vancomycin nor the addition of 0.2 mM P27 resulted in lysis
